Laboratory results: patent US20240287089A1, “Preparation and Uses of 7-Azaindenoisoquinolines” (Purdue Research Foundation, priority 0001, published 2024)
Read-outs that look alike come from different tables or passages of the source.

Key:
[1] = system: HOP-62 (Lung); conditions: Lung HOP-62; reference 20; read-out: Cytotoxicity GI50; cited from earlier work
[2] = system: OVCAR-3 (Ovarian); conditions: Ovarian OVCAR-3; reference 20; read-out: Cytotoxicity GI50; cited from earlier work
[3] = system: SN12C (Renal); conditions: reference 20, read-out: Cytotoxicity GI50; cited from earlier work
[4] = system: SF-539 (CNS); conditions: CNS SF-539; reference 20; read-out: Cytotoxicity GI50; cited from earlier work
[5] = Brain penetration and plasma/brain pharmacokinetics in CD1 mice; conditions: for Brain Conc / Brain/Plasma Conc Ratio / Plasma Conc: 20 mg/kg IV
Experimental: (§3) Brain Penetration Studies. […] The concentrations were determined by LC-MS/MS with direct measurement of the plasma samples. The brain tissue was homogenized with water using a 3:1 ratio of water (mL) to brain (g) before determination of the concentrations (ng/mL) in the brain homogenates, and the homogenate values then were multiplied by a factor of 4 to obtain the brain concentrations (ng/g).

[6] = system: UACC-62 (Melanoma); conditions: Melanoma UACC-62; reference 20; read-out: Cytotoxicity GI50; cited from earlier work
[7] = system: DU-145 (Prostate); conditions: Prostate DU-145; reference 20; read-out: Cytotoxicity GI50; cited from earlier work
[8] = system: NCI-60 cancer cell lines; conditions: NCI-60 panel; reference 20; read-out: MGM (average GI50 across NCI-60 panel); cited from earlier work
[9] = system: RD-ES human sarcoma tumor cells; assay: RD-ES xenograft in female NOD SCID mice; assay type: in vivo; conditions: 20 mg/kg IV
Experimental: Xenograft Studies. […] JQ1 was employed as a positive control.
Similar studies were performed after inoculation of female NOD SCID mice with RD-ES human sarcoma tumor cells (FIGS. 16-19). The tumors grew much more rapidly and treatment was started on day 8 after tumor inoculation, with measurements of body weights and tumor sizes being made on days 8, 12, 15, 19, and 22 after tumor inoculation. […] The average RD-ES tumor sizes were much larger than observed with MOLT-4 (2327±285 vs. 546±59 mm^3).

[10] = in vivo, iv, 20 mg/kg
Experimental: as §3

[11] = mouse, 1 μM
Experimental: Analysis of Plasma Protein Binding and Stability in Human and Mouse Blood Plasma by Equilibrium Dialysis. Frozen plasma (stored at −80° C.) was thawed immediately in a 37° C. water bath. The working solutions of test compound and control compound were prepared in DMSO at 200 μM concentration, and the working solutions were spiked into plasma. The final concentration of compound was 1 μM. The final concentration of DMSO was 0.5%. Ketoconazole was used as positive control in the assay. The dialysis membranes were soaked in ultrapure water for 60 min to separate strips, then in 20% ethanol for 20 min, and then finally in dialysis buffer for 20 min. For equilibrium dialysis, each cell contained plasma sample (150 μL) and was dialyzed against an equal volume of dialysis buffer (PBS). The assay was performed in duplicate. The dialysis plate was sealed and incubated at 37° C. with 5% CO2 at 100 rpm for 6 h. At the end of incubation, samples (50 μL) from both buffer and plasma chambers were transferred to wells of a 96-well plate. Plasma (50 μL) was added to each buffer sample and an equal volume of PBS was added to the collected plasma sample. […] The concentrations of test compounds in the buffer and plasma chambers were determined from peak area ratios.

[12] = system: Raji cells; assay: MTS single-dosage cell viability assay; assay type: cell-based; conditions: 250 nM
Source text: (§1) Single-Dosage Cell Viability Assay in CA-46 and Raji Cells. CA-46 and Raji are both Myc-dependent and -overexpressing non-Hodgkin's lymphoma cell lines. Both cell lines overexpress Myc due to a translocation that inserts an IgH enhancer upstream to the Myc gene. Whereas CA-46's translocation eliminates the G-quadruplex-forming region in one allele, Raji's translocation preserves the G-quadruplex-forming regions in both alleles. Therefore, Raji would be more sensitive to G-quadruplex-mediated Myc inhibition than CA-46, which may be reflected in lower IC50 values for Raji than CA-46. To evaluate cell line selectivity, MTS single-dosage assays were conducted to compare the antiproliferative effects of 7-aza-8,9-methylenedioxyindenoisoquinolines on CA-46 and Raji cells at 250 nM drug concentration (FIG. 8). Average % viability values of CA-46 and Raji cells for each drug were presented in bar plots side-by-side.
(§2) MTS Cell Viability Single-dosage Assay. Drug solutions for the MTS single dosage assays were made from DMSO stocks by dilutions in 1×PBS. To set up treatments, drug solutions were plated in triplicates to a 96-well tissue culture plate and added with media containing CA46 or Raji 2000 cells/well. […] Cells were quantified the same way as in the IC50 assays. To obtain %-viability, A490 values were subtracted by blank, normalized to 100%-viability control, and averaged. […]

[13] = system: CA-46 cells; assay: MTS single-dosage cell viability assay; assay type: cell-based; conditions: CA-46, 250 nM
Source text: as §1, §2

[14] = brain, IV 20 mg/kg, male CD1 mice
[15] = plasma, IV 20 mg/kg, male CD1 mice

COc1cc2c3c(n(CCCNCCO)c(=O)c2cc1OC)-c1cc2c(cc1C3=O)OCO2 [LMP744]
GI50 [1]: 20 nM
GI50 [2]: 350 nM
GI50 [3]: < 10 nM
GI50 [4]: 40 nM
Brain Conc ([5]; 0.25 h): 941 ± 158 nM
Brain/Plasma Conc Ratio ([5]; 0.25 h): 0.65
Plasma Conc ([5]; 0.25 h): 1434 ± 123 nM
Brain Conc ([5]; 0.5 h): 582 ± 380 nM
Brain/Plasma Conc Ratio ([5]; 0.5 h): 0.34
Plasma Conc ([5]; 0.5 h): 1712 ± 945 nM
Brain Conc ([5]; 1 h): 802 ± 122 nM
Brain/Plasma Conc Ratio ([5]; 1 h): 0.90
Plasma Conc ([5]; 1 h): 894 ± 194 nM
Brain Conc ([5]; 2 h): 743 ± 136 nM
Brain/Plasma Conc Ratio ([5]; 2 h): 1.39
Plasma Conc ([5]; 2 h): 535 ± 103 nM
Brain Conc ([5]; 4 h): 857 ± 162 nM
Brain/Plasma Conc Ratio ([5]; 4 h): 5.44
Plasma Conc ([5]; 4 h): 154 ± 14 nM
Brain Conc ([5]; 8 h): 759 ± 188 nM
Plasma Conc ([5]; 8 h): 86 ± 31 nM
Brain Conc ([5]; 24 h): 524 ± 166 nM
Brain/Plasma Conc Ratio ([5]; 24 h): 27.1
Plasma Conc ([5]; 24 h): 23 ± 5 nM
AUClast [5, 14]: 7606 ng·h/g
AUC—% Extrap—obs [5, 14]: 72%
Cmax [5, 14]: 413 ng/g
Tmax [5, 14]: 0.25 h
AUCInf [5, 15]: 2132 ng·h/mL
AUClast [5, 15]: 2022 ng·h/mL
AUC—% Extrap—obs [5, 15]: 5.16%
C0 [5, 15]: 1943 ng/mL
Cl_obs [5, 15]: 156 mL/min/kg
MRTInf—obs [5, 15]: 5.14 h
T1/2 [5, 15]: 7.48 h
Vss—obs [5, 15]: 48.2 L/kg
GI50 [6]: 30 nM
GI50 [7]: < 10 nM
GI50 [8]: 110 nM

COc1cc2c3c(n(CCCNCCO)c(=O)c2cc1OC)-c1nc2c(cc1C3=O)OCO2 [G105, 6-(3-((2-Hydroxyethyl)amino)propyl)-2,3-dimethoxy-5H-[1,3]dioxolo[4″,5″:5′,6′]pyrido[3′,2′:4,5]cyclopenta[1,2-c]isoquinoline-5,12(6H)-dione]
potency on tumor size [9]: most potent
AUCInf ([10]; male, CD1, mouse): 2949 ng·h/mL
AUClast ([10]; male, CD1, mouse): 2847 ng·h/mL
C0 ([10]; male, CD1, mouse): 3904 ng/mL
Cl_obs ([10]; male, CD1, mouse): 113 mL/min/kg
MRTInf—obs ([10]; male, CD1, mouse): 4.12 h
T1/2 ([10]; male, CD1, mouse): 6.18 h
Brain/Plasma Conc Ratio ([10]; male, CD1, mouse, 0.25 h): 0.42
Brain/Plasma Conc Ratio ([10]; male, CD1, mouse, 0.5 h): 0.44
Brain/Plasma Conc Ratio ([10]; male, CD1, mouse, 1 h): 0.73
Brain/Plasma Conc Ratio ([10]; male, CD1, mouse, 2 h): 1.45
Brain/Plasma Conc Ratio ([10]; male, CD1, mouse, 4 h): 2.71
Brain/Plasma Conc Ratio ([10]; male, CD1, mouse, 8 h): 10.2
AUClast ([10]; mouse): 9698 ng·h/g
% Stability at 6 hrs [11]: 97.59%

COc1cc2c3c(n(CCCN4CCOCC4)c(=O)c2cc1OC)-c1nc2c(cc1C3=O)OCO2 [G101, 2,3-Dimethoxy-6-(3-morpholinopropyl)-5H-[1,3]dioxolo[4″,5″:5′,6′]pyrido[3′,2′:4,5]cyclopenta[1,2-c]isoquinoline-5,12(6H)-dione]
growth inhibition (% viability) [12]: did not show growth inhibition
growth inhibition (% viability) [13]: did not show growth inhibition
